Reference: patent US20170166879A1, “NOVEL (R)-HYDROXYNITRILE LYASE” (PUBLIC UNIVERSITY CORPORATION TOYAMA PREFECTURAL UNIVERSITY, priority 2014, published 2017)
Where two headings read alike, the source gives them in different places. Non-standard residues stand in square brackets, D forms with d. Residues, ends and D or L forms follow the SMILES beside them. *: point of attachment. Sta = CC(C)C[C@H](N)[C@@H](O)CC(=O)O; Isovaleryl = CC(C)CC(=O)*

Columns and labels:
R-ChHNL [1] = molecular target: T1, R-ChHNL (Chamberlinius hualienensis, UniProt A0A0H5BR52); assay: Search of inhibitor of R-ChHNL activity (remaining activity); type: biochemical
R-ChHNL [2] = molecular target: T1, R-ChHNL; assay: Dynamic (kinetic) analysis, aldehyde substrates, Hanes-Woolf plot
R-ChHNL [3] = molecular target: T1, R-ChHNL; assay: Dynamic (kinetic) analysis, racemic mandelonitrile as substrate (decomposition reaction); type: biochemical
[4] = tested on: S-HNL derived from Baliospermum; details: cited from earlier work
O=Cc1cccc2ccccc12 = assay: purified protein, by the assay type; details: other: aldehydes other than benzaldehyde; condition similar to the above-described condition; pH 5.2
Cc1cccc(C=O)c1 = assay: purified protein, by the assay type; details: other: aldehydes other than benzaldehyde; condition similar to the above-described condition; pH 5.2
Cc1ccc(C=O)cc1 = assay: purified protein, by the assay type; details: other: aldehydes other than benzaldehyde; condition similar to the above-described condition; pH 5.2
[5] = type: biochemical, Chamberlinius hualienensis
Protocol: The stability to temperature was measured by performing the reaction in a reaction mixture of pH 7.0 at the temperature range of 0 to 70° C. for 1 hour. In addition, the reaction was similarly performed except that the reaction temperature was adjusted to 20° C. and pH was changed in the range of 3 to 11. In the reaction, citrate-phosphate buffer was used when pH was 3 to 8, and glycine-NaOH buffer was used when pH was 8 to 11. The enzyme activity was measured according to the method described in Dadashipour et al. (2011). […] In addition, the relation between the reaction temperature and the remaining activity and the relation between the reaction pH and the remaining activity of both R-ChHNLs are respectively shown in FIG. 7(A) and FIG. 7(B).

[6] = Decomposition reaction from racemic mandelonitrile to benzaldehyde, absorbance at 280 nm; type: biochemical, Chamberlinius hualienensis; details: purified enzyme; decomposition: 2 mM racemic mandelonitrile, pH 5.0-5.5, 22° C.
R-ChHNL [7] = molecular target: T1, R-ChHNL; assay: Substrate identification by cyanohydrin synthetic reaction; type: biochemical; details: 50 mM carbonyl compound, 100 mM KCN, pH 4.2, 25° C., 5 minutes (aliphatic: 2 hours)
[8] = concentration not given (1 mM or 0.1 mM), pH 7.0, 20° C., 60 minutes
[9] = 1 mM, pH 7.0, 20° C., 60 minutes, read-out: Remaining activity
[10] = 10 mM, pH 7.0, 20° C., 60 minutes, read-out: Remaining activity
[11] = aldehydes other than benzaldehyde, condition similar to the above-described condition
[12] = aldehydes other than benzaldehyde, relative to benzaldehyde at pH 5.2 and 22° C.
[13] = 100 μg/mL, pH 7.0, 20° C., 60 minutes
[14] = 1 mM, pH 7.0, 20° C., 60 minutes
[15] = 10 mM, pH 7.0, 20° C., 60 minutes

O[C@@H](CS)[C@@H](O)CS [DTT]
Remaining activity (R-ChHNL [1]; [8]): 100%

[Cl][Fe]([Cl])[Cl] [FeCl3]
Remaining activity (R-ChHNL [1]; [8]): 100%

NC(=O)CI [iodoacetamide]
remaining activity at 1000 µM (R-ChHNL [1]; [9]): 75%
remaining activity at 10000 µM (R-ChHNL [1]; [10]): 28%
inhibition of the activity of R-ChHNL (R-ChHNL [1]; concentration increased to 10 mM): inhibit

[Cl][Cr]([Cl])[Cl] [CrCl3]
Remaining activity (R-ChHNL [1]; [8]): 88%

Cc1ccc(C=O)cc1 [4-methylbenzaldehyde]
max S.A. (specific activity) (R-ChHNL [2]; [11]): 11072 U/mg
relative S.A. (R-ChHNL [2]; [12]): 149.0

CC(=O)N[C@@H](CC(C)C)C(=O)N[C@@H](CC(C)C)C(=O)N[C@H](C=O)CCCNC(=N)N [leupeptin]
remaining activity at 100 µg/mL (R-ChHNL [1]; [13]): 86%

N#CC(O)c1ccccc1 (racemic) [racemic mandelonitrile, mandelonitrile]
Km (R-ChHNL [3]): 5.5 mM
Vmax (R-ChHNL [3]): 2819 µmol/min/mg
kcat (R-ChHNL [3]): 1168 s⁻¹
max S.A. (specific activity) (R-ChHNL [3]): 1896 U/mg

NN [hydrazine]
Remaining activity (R-ChHNL [1]; [8]): 100%

Cc1ccc(C=O)c(C)c1 [2,4-dimethylbenzaldehyde]
Km (R-ChHNL [2]; [11]): 0.94 mM
Vmax (R-ChHNL [2]; [11]): 632.2 µmol/min/mg
kcat (R-ChHNL [2]; [11]): 261.8 s⁻¹
max S.A. (specific activity) (R-ChHNL [2]; [11]): 654 U/mg
relative S.A. (R-ChHNL [2]; [12]): 8.8

O=Cc1cccs1 [2-thiophenecarboxaldehyde]
Km (R-ChHNL [2]; [11]): 18.7 mM
Vmax (R-ChHNL [2]; [11]): 3522 µmol/min/mg
kcat (R-ChHNL [2]; [11]): 1459 s⁻¹
max S.A. (specific activity) (R-ChHNL [2]; [11]): 2403 U/mg
relative S.A. (R-ChHNL [2]; [12]): 32.3

O=C(O)c1cc(SSc2ccc([N+](=O)[O-])c(C(=O)O)c2)ccc1[N+](=O)[O-] [dithionitrobenzoic acid]
Remaining activity (R-ChHNL [1]; [8]): 97%

CCN1C(=O)C=CC1=O [N-ethylmaleimide]
Remaining activity (R-ChHNL [1]; [8]): 100%

CC(C)CC(=O)N[C@H](C(=O)N[C@H](C(=O)N[C@@H](CC(C)C)[C@@H](O)CC(=O)N[C@@H](C)C(=O)N[C@@H](CC(C)C)[C@@H](O)CC(=O)O)C(C)C)C(C)C [pepstatin A] (Isovaleryl-VV[Sta]A[Sta]-OH)
Remaining activity (R-ChHNL [1]; [13]): 89%

O=C(O)c1cc[c]([Hg][Cl])cc1 [p-chloromercuribenzoic acid]
Remaining activity (R-ChHNL [1]; [8]): 100%

NC(=S)Nc1ccccc1 [phenylthiourea]
Remaining activity (R-ChHNL [1]; [8]): 100%

CCC1(CC)C(=O)NC(=O)NC1=O [barbital sodium]
Remaining activity (R-ChHNL [1]; [8]): 93%

CCOC(=O)OC(=O)OCC [diethylpyrocarbonate]
remaining activity at 1000 µM (R-ChHNL [1]; [9]): 100%
remaining activity at 10000 µM (R-ChHNL [1]; [10]): 79%

O=C1NC(=O)C(c2ccccc2)(c2ccccc2)N1 [diphenylhydantoin]
Remaining activity (R-ChHNL [1]; [8]): 100%

[Cl][Cd][Cl] [CdCl2]
Remaining activity (R-ChHNL [1]; [8]): 99%

oxidized glutathione
Remaining activity (R-ChHNL [1]; 0.5 mM, pH 7.0, 20° C., 60 minutes): 95%

O=S(=O)(F)Cc1ccccc1 [phenylmethylsulfonyl fluoride (PMSF), phenylmethylsulfonyl fluoride]
Remaining activity (R-ChHNL [1]; [14]): 91%
Remaining activity (R-ChHNL [1]; [15]): 60%

O=[N+]([O-])[O-].[Ag+] [AgNO3]
Remaining activity (R-ChHNL [1]; [8]): 68%

O=C(O)CI [iodoacetic acid]
inhibition of the activity of R-ChHNL (R-ChHNL [1]): inhibit
remaining activity at 1000 µM (R-ChHNL [1]; pH 7): 52%
remaining activity at 10000 µM (R-ChHNL [1]; pH 7): 18%

O=C(O)CN(CCN(CC(=O)O)CC(=O)O)CC(=O)O [EDTA]
Remaining activity (R-ChHNL [1]; [15]): 100%

[Cl][Pb][Cl] [PbCl2]
Remaining activity (R-ChHNL [1]; 0.1 mM, pH 7.0, 20° C., 60 minutes): 98%
Remaining activity (R-ChHNL [1]; [14]): 77%

N.N#CS [ammonium thiocyanate]
inhibition of S-HNL [4]: strongly inhibits

OCCS [2-mercaptoethanol]
Remaining activity (R-ChHNL [1]; [15]): 95%

[Cl-].[Cl-].[Co+2] [CoCl2]
Remaining activity (R-ChHNL [1]; pH 7): 95%

O=S(=O)([O-])[O-].[Zn+2] [ZnSO4]
Remaining activity (R-ChHNL [1]; [8]): 100%

R-ChHNL (Chamberlinius hualienensis)
Km (O=Cc1cccc2ccccc12): 0.65 mM
Vmax (O=Cc1cccc2ccccc12): 313 µmol/min/mg
kcat (O=Cc1cccc2ccccc12): 130 s⁻¹
kcat/Km (O=Cc1cccc2ccccc12): 199000 M⁻¹ s⁻¹
Km (Cc1cccc(C=O)c1): 9.9 mM
Vmax (Cc1cccc(C=O)c1): 14000 µmol/min/mg
kcat (Cc1cccc(C=O)c1): 5800 s⁻¹
kcat/Km (Cc1cccc(C=O)c1): 584000 M⁻¹ s⁻¹
Km (Cc1ccc(C=O)cc1): 5.0 mM
Vmax (Cc1ccc(C=O)cc1): 11900 µmol/min/mg
kcat (Cc1ccc(C=O)cc1): 4940 s⁻¹
kcat/Km (Cc1ccc(C=O)cc1): 989000 M⁻¹ s⁻¹

avidin: avidin, listed as biotin reagent
Remaining activity (R-ChHNL [1]; [13]): 96%

Cc1cccc(C=O)c1 [3-methylbenzaldehyde]
max S.A. (specific activity) (R-ChHNL [2]; [11]): 12657 U/mg
relative S.A. (R-ChHNL [2]; [12]): 170.3

Cc1ccccc1C=O [2-methylbenzaldehyde]
Km (R-ChHNL [2]; [11]): 3.1 mM
Vmax (R-ChHNL [2]; [11]): 2564.9 µmol/min/mg
kcat (R-ChHNL [2]; [11]): 1062.3 s⁻¹
max S.A. (specific activity) (R-ChHNL [2]; [11]): 2395 U/mg
relative S.A. (R-ChHNL [2]; [12]): 32.2

N[C@@H](CCC(=O)N[C@@H](CS)C(=O)NCC(=O)O)C(=O)O [reduced glutathione]
Remaining activity (R-ChHNL [1]; pH 7): 93%

O=Cc1ccc2c(c1)OCO2 [piperonal]
Km (R-ChHNL [2]; [11]): 5.6 mM
Vmax (R-ChHNL [2]; [11]): 3006.6 µmol/min/mg
kcat (R-ChHNL [2]; [11]): 1245.2 s⁻¹
max S.A. (specific activity) (R-ChHNL [2]; [11]): 2748 U/mg
relative S.A. (R-ChHNL [2]; [12]): 37.0

COc1cccc(C=O)c1 [3-methoxybenzaldehyde]
Km (R-ChHNL [2]; [11]): 5.7 mM
Vmax (R-ChHNL [2]; [11]): 3228.2 µmol/min/mg
kcat (R-ChHNL [2]; [11]): 1337 s⁻¹
max S.A. (specific activity) (R-ChHNL [2]; [11]): 3326 U/mg
relative S.A. (R-ChHNL [2]; [12]): 44.7

O=S(=O)([O-])[O-].[Mn+2] [MnSO4]
Remaining activity (R-ChHNL [1]; [8]): 106%

[Cl][Hg][Cl] [HgCl2]
Remaining activity (R-ChHNL [1]; [8]): 64%

O=Cc1cccc2ccccc12 [1-naphthalenecarboxaldehyde]
max S.A. (specific activity) (R-ChHNL [2]; [11]): 326 U/mg
relative S.A. (R-ChHNL [2]; [12]): 4.4

[Cl][Ni][Cl] [NiCl2]
Remaining activity (R-ChHNL [1]; [8]): 93%

R-ChHNL: (R)-hydroxynitrile lyase purified from Chamberlinius hualienensis, amino acid sequence SEQ ID NO: 3, homodimer
stability to pH (remaining activity) [5]: stability in broad pH range
pH of maximum activity ([5]; 20° C., pH 3 to 11, FIG. 5): 5.8
activity after heating at 60° C. ([5]; 60° C. for 1 hour or longer, FIG. 6): maintained
activity maintained after heating at 75° C. ([5]; 75° C. for 1 hour): 20%
optimum temperature ([5]; FIG. 6): 35 °
temperature at which high activity is exhibited ([5]; FIG. 6): ≤ 60 °C
activity at pH 4 as share of maximum activity value ([5]; pH 4, FIG. 5): about 10%
activity in cyanohydrin synthesis direction relative to activity in cyanohydrin decomposition reaction [6]: 2.6 times

COc1ccc(C=O)cc1 [4-methoxybenzaldehyde]
Km (R-ChHNL [2]; [11]): 6.7 mM
Vmax (R-ChHNL [2]; [11]): 7482 µmol/min/mg
kcat (R-ChHNL [2]; [11]): 3099 s⁻¹
max S.A. (specific activity) (R-ChHNL [2]; [11]): 6849 U/mg
relative S.A. (R-ChHNL [2]; [12]): 92.1

O=Cc1ccc(Br)cc1 [4-bromobenzaldehyde]
Km (R-ChHNL [2]; [11]): 9.5 mM
Vmax (R-ChHNL [2]; [11]): 19940 µmol/min/mg
kcat (R-ChHNL [2]; [11]): 8259 s⁻¹
max S.A. (specific activity) (R-ChHNL [2]; [11]): 17375 U/mg
relative S.A. (R-ChHNL [2]; [12]): 233.8

O=S(=O)([O-])[O-].[Cu+2] [CuSO4]
Remaining activity (R-ChHNL [1]; [8]): 100%

O=Cc1ccccc1 [benzaldehyde]
max S.A. (specific activity) (R-ChHNL [2]; pH5.2, 22° C.): 7433 U/mg
relative S.A. (R-ChHNL [2]; pH5.2, 22° C., the reference case (100)): 100
max S.A. (specific activity) (R-ChHNL [2]; pH5.8, 35° C.): 17141 U/mg
relative S.A. (R-ChHNL [2]; pH5.8, 35° C., relative to benzaldehyde at pH 5.2 and 22° C.): 230.6
activity of R-ChHNL on the carbonyl compound as substrate (R-ChHNL [7]): recognizes
